Data published in ChEMBL document CHEMBL5500346, “Targeting EGFR degradation by autophagosome degraders” (Eur J Med Chem, 2024).
Active and inactive are the calls of the source. The rule behind the calls is not given here.

Experiments:
[1] = biological target: T1, Microtubule-associated protein 1 light chain 3 beta/Epidermal growth factor receptor (Homo sapiens, UniProt P00533+Q9GZQ8); experiment: ATTEC activity at LC3B/EGFR in rapamycin-treated human HCC827 cells assessed as protein degradation by Western blot analysis; type: cell-based
[2] = Stability in mouse plasma at 1 mg/ml incubated for 160 mins by HPLC analysis; type: ADME, cell-free; details: read-out: Stability
PC-9 [3] = experiment: In vivo ATTEC activity at LC3B/EGFR in human PC-9 cells implanted in NOD-SCID mouse assessed as protein degradation at 20 mg/kg, ip measured after 24 hrs by Western blot analysis; type: functional, organism-based
HCC827 [4] = experiment: Inhibition of colony formation in human HCC827 cells incubated for 2 weeks by crystal violet staining based analysis; type: functional, cell-based; details: dose 0.1-10 µM
[5] = biological target: T1, Microtubule-associated protein 1 light chain 3 beta/Epidermal growth factor receptor; experiment: ATTEC activity at LC3B/EGFR in human NCI-H3255 cells assessed as protein degradation; type: cell-based
PC-9 [6] = experiment: Inhibition of colony formation in human PC-9 cells incubated for 2 weeks by crystal violet staining based analysis; type: functional, cell-based; details: dose 0.1-10 µM
[7] = biological target: T1, Microtubule-associated protein 1 light chain 3 beta/Epidermal growth factor receptor; experiment: ATTEC activity at LC3B/EGFR in human HCC827 cells assessed as increase in density of lysosomes incubated for 4 hrs by LysoTracker Red staining based analysis; type: cell-based
[8] = biological target: T1, Microtubule-associated protein 1 light chain 3 beta/Epidermal growth factor receptor; experiment: ATTEC activity at LC3B/EGFR in MG132-treated human HCC827 cells assessed as protein degradation at 1 uM incubated for 12 hrs by Western blot analysis; type: cell-based
[9] = Toxicity in C57BL/6 mouse assessed as serum AST level at 100 mg/kg, ip measured after 24 hrs (reference value: 234.682 U/L); type: organism-based; details: in vivo
[10] = biological target: T1, Microtubule-associated protein 1 light chain 3 beta/Epidermal growth factor receptor; experiment: ATTEC activity at LC3B/EGFR in human PC-9 cells assessed as protein degradation; type: cell-based
[11] = Toxicity in C57BL/6 mouse assessed as serum TBA level at 200 mg/kg, ip measured after 24 hrs (reference value: 2.674 umol/L); type: organism-based; details: in vivo
NCI-H1975 = experiment: Antiproliferative activity against human NCI-H1975 cells incubated for 72 hrs by CCK8 assay; type: functional, cell-based; details: NCI-H1975, 72 h
[12] = Toxicity in C57BL/6 mouse assessed as serum ALP level at 200 mg/kg, ip measured after 24 hrs (reference value: 250.654 U/L); type: organism-based; details: in vivo
[13] = Toxicity in C57BL/6 mouse assessed as serum creatinine level at 200 mg/kg, ip measured after 24 hrs (reference value: 32.258 umol/L); type: organism-based; details: in vivo
HCC827 [14] = experiment: Antiproliferative activity against human HCC827 cells incubated for 72 hrs by CCK8 assay; type: functional, cell-based; details: HCC827, 72 h
[15] = Half life in Sprague-Dawley rat at 20 mg/kg, po; type: ADME, organism-based; details: in vivo
[16] = Toxicity in C57BL/6 mouse assessed as serum DBIL level at 200 mg/kg, ip measured after 24 hrs (reference value: 7.868 umol/L); type: organism-based; details: in vivo
[17] = Toxicity in C57BL/6 mouse assessed as serum GGT level at 200 mg/kg, ip measured after 24 hrs (reference value: 1.62 U/L); type: organism-based; details: in vivo
[18] = Toxicity in C57BL/6 mouse assessed as serum TBIL level at 200 mg/kg, ip measured after 24 hrs (reference value: 18.958 umol/L); type: organism-based; details: in vivo
[19] = Toxicity in C57BL/6 mouse assessed as tremor upto 200 mg/kg, ip measured after 24 hrs; type: organism-based; details: in vivo
[20] = biological target: T1, Microtubule-associated protein 1 light chain 3 beta/Epidermal growth factor receptor; experiment: ATTEC activity at LC3B/EGFR in human HCC827 cells assessed as protein degradation by immunoblot analysis; type: cell-based
[21] = Toxicity in C57BL/6 mouse assessed as serum ALB level at 100 mg/kg, ip measured after 24 hrs (reference value: 40.01 g/L); type: organism-based; details: in vivo
[22] = Toxicity in C57BL/6 mouse assessed as serum creatinine level at 100 mg/kg, ip measured after 24 hrs (reference value: 32.258 umol/L); type: organism-based; details: in vivo
[23] = Toxicity in C57BL/6 mouse assessed as change in hematological indicators upto 200 mg/kg, ip measured after 24 hrs by blood cell analysis; type: organism-based; details: in vivo
[24] = Toxicity in C57BL/6 mouse assessed as serum ALT level at 100 mg/kg, ip measured after 24 hrs (reference value: 42.554 U/L); type: organism-based; details: in vivo
[25] = biological target: T1, Microtubule-associated protein 1 light chain 3 beta/Epidermal growth factor receptor; experiment: ATTEC activity at LC3B/EGFR in CHX-treated human HCC827 cells assessed as protein degradation at 1 uM incubated for 12 hrs by Western blot analysis; type: cell-based
[26] = Toxicity in C57BL/6 mouse assessed as serum uric acid level at 200 mg/kg, ip measured after 24 hrs (reference value: 78.784 umol/L); type: organism-based; details: in vivo
[27] = biological target: T1, Microtubule-associated protein 1 light chain 3 beta/Epidermal growth factor receptor; experiment: ATTEC activity at LC3B/EGFR in human HCC827 cells assessed as protein degradation; type: cell-based
[28] = biological target: T1, Microtubule-associated protein 1 light chain 3 beta/Epidermal growth factor receptor; experiment: ATTEC activity at LC3B/EGFR in human HCC827 cells assessed as protein degradation at 1 uM measured after 48 hrs by Western blot analysis; type: cell-based
PC-9 [29] = experiment: Antiproliferative activity against human PC-9 cells incubated for 72 hrs by CCK8 assay; type: functional, cell-based; details: PC-9, 72 h
[30] = biological target: T1, Microtubule-associated protein 1 light chain 3 beta/Epidermal growth factor receptor; experiment: ATTEC activity at LC3B/EGFR in human A549 cells assessed as protein degradation; type: cell-based
[31] = biological target: T1, Microtubule-associated protein 1 light chain 3 beta/Epidermal growth factor receptor; experiment: ATTEC activity at LC3B/EGFR in chloroquine-treated human HCC827 cells assessed as protein degradation at 1 uM incubated for 16 hrs by Western blot analysis; type: cell-based
[32] = biological target: T1, Microtubule-associated protein 1 light chain 3 beta/Epidermal growth factor receptor; experiment: ATTEC activity at LC3B/EGFR in EBSS-treated human HCC827 cells assessed as protein degradation by Western blot analysis; type: cell-based
[33] = Toxicity in C57BL/6 mouse assessed as serum AST level at 200 mg/kg, ip measured after 24 hrs (reference value: 234.682 U/L); type: organism-based; details: in vivo
[34] = Half life in Sprague-Dawley rat at 20 mg/kg, ip; type: ADME, organism-based; details: in vivo
[35] = Toxicity in C57BL/6 mouse assessed as serum urea level at 100 mg/kg, ip measured after 24 hrs (reference value: 18.934 mmol/L); type: organism-based; details: in vivo
[36] = Toxicity in C57BL/6 mouse assessed as serum urea level at 200 mg/kg, ip measured after 24 hrs (reference value: 18.934 mmol/L); type: organism-based; details: in vivo
PC-9 [37] = experiment: Anti-tumor activity against human PC-9 cells implanted in NOD-SCID mouse at 20 mg/kg, ip administered every other day for 3 weeks relative to control; type: functional; details: PC-9, 504 h, read-out: TGI
[38] = biological target: T1, Microtubule-associated protein 1 light chain 3 beta/Epidermal growth factor receptor; experiment: ATTEC activity at LC3B/EGFR in MLN4924-treated human HCC827 cells assessed as protein degradation at 1 uM incubated for 12 hrs by Western blot analysis; type: cell-based
[39] = biological target: T1, Microtubule-associated protein 1 light chain 3 beta/Epidermal growth factor receptor; experiment: ATTEC activity at LC3B/EGFR in Baf-treated human HCC827 cells assessed as protein degradation at 1 uM incubated for 16 hrs by Western blot analysis; type: cell-based
[40] = biological target: T1, Microtubule-associated protein 1 light chain 3 beta/Epidermal growth factor receptor; experiment: ATTEC activity at LC3B/EGFR in human NCI-H1975 cells assessed as protein degradation; type: cell-based
A549 = experiment: Antiproliferative activity against human A549 cells incubated for 72 hrs by CCK8 assay; type: functional, cell-based; details: A549, 72 h

## COc1cc2ncnc(Nc3ccc(F)c(Cl)c3)c2cc1OCCOCCOCCOCCNC(=O)COc1c(Br)cc(/C=C2\C(=O)Nc3ccc(I)cc32)cc1Br
[1]
  Activity: Active
[2]
  remaining at 2.667 h, 1 mg/ml: 90%
PC-9 [3]
  Activity: Active
HCC827 [4]
  inhibition: Dose-Dependent Effect
[5]
  Activity: Active
PC-9 [6]
  inhibition: Dose-Dependent Effect
[7]
  Activity: Active
[8]
  Activity: Active
[9]
  Activity: 229.632 U/L
[10]
  Activity: Active
[11]
  Activity: 3.062 µmol/L
NCI-H1975
  IC50: > 10 µM
[12]
  Activity: 177.394 U/L
[13]
  Activity: 30.848 µmol/L
HCC827 [14]
  IC50: 0.278 µM
[15]
  half-life: 0.306 h
[16]
  Activity: 6.434 µmol/L
[17]
  Activity: 1.712 U/L
[18]
  Activity: 16.068 µmol/L
[19]
  Activity: Non-Toxic
[20]
  DC50: 0.98 µM
[21]
  Activity: 35.48 g/L
[22]
  Activity: 27.8 µmol/L
[23]
  Activity: Non-Toxic
[24]
  Activity: 65.504 U/L
[25]
  Activity: inactive
[26]
  Activity: 49.734 µmol/L
[27]
  Activity: Active
[28]
  Activity: Active
PC-9 [29]
  IC50: 5.61 µM
[30]
  Activity: inactive
[31]
  Activity: inactive
[32]
  Activity: Active
[33]
  Activity: 159.506 U/L
[34]
  half-life: 10.5 h
[35]
  Activity: 19.63 mmol/L
[36]
  Activity: 19.029 mmol/L
PC-9 [37]
  inhibition in vivo at 20 mg/kg: 63.4%
[38]
  Activity: Active
[39]
  Activity: inactive
[40]
  Activity: inactive
A549
  IC50: > 10 µM
